Converted amounts (≈) assume the structure as drawn.
How the values were obtained:
[1] = molecular target: T1, Enoyl-[acyl-carrier-protein] reductase [NADH] (Mycobacterium tuberculosis) (UniProt P9WGR1); assay: Inhibition of Mycobacterium tuberculosis mc2 6230 InhA assessed as antimycobacterial activity by measuring minimum inhibitory concentration required to inhibit 99% of bacterial growth
T1 sequence (whole entry): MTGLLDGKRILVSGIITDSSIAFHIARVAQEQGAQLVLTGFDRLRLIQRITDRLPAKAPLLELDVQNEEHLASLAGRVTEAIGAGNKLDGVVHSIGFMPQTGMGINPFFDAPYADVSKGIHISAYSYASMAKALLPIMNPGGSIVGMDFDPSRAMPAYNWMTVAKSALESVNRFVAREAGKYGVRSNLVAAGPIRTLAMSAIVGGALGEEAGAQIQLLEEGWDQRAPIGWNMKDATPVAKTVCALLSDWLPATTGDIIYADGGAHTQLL

Vero [2] = assay: Cytotoxicity against African green monkey Vero cells; assay type: cell-based; conditions: Chlorocebus sabaeus
[3] = Selectivity index, ratio of IC50 for African green monkey Vero cells to MIC99 for Mycobacterium tuberculosis mc2 6230; assay type: toxicity; conditions: read-out: Selectivity Index
[4] = test system: Mycobacterium tuberculosis; assay: Antitubercular activity against Mycobacterium tuberculosis mc2 6230 assessed as minimum inhibitory concentration required to inhibit 99% of bacterial growth measured after 2 to 3 weeks; assay type: functional; conditions: time weeks 2-3
Vero [5] = assay: Cytotoxicity against African green monkey Vero cells assessed as reduction in cell viability measured after 24 hrs by resazurin assay; assay type: cell-based; conditions: Chlorocebus sabaeus
[6] = test system: Mycobacterium tuberculosis; assay: Antitubercular activity against Mycobacterium tuberculosis mc2 6230 assessed as minimum inhibitory concentration required to inhibit 99% of bacterial growth incubated for 7 days by two-fold serial dilution method; assay type: functional; conditions: mc2 6230, 168 h, time 7 day
[7] = test system: Mycobacterium tuberculosis; assay: Antitubercular activity against Mycobacterium tuberculosis mc2 6230 assessed as minimum inhibitory concentration required to inhibit 99% of bacterial growth; assay type: functional
[8] = test system: Mycobacterium tuberculosis; assay: Antimycobacterial activity against Mycobacterium tuberculosis H37Rv assessed as reduction in bacterial cell growth; assay type: functional
[9] = test system: Mycobacterium tuberculosis; assay: Antitubercular activity against Mycobacterium tuberculosis H37Rv assessed as reduction in bacterial cell growth measured after 7 days by alamar blue assay; assay type: functional; conditions: 168 h, time 7 day

Question: For `O=C(NNC(=O)c1ccc2c(c1)C(=O)N(CCCNc1ccnc3cc(Cl)ccc13)C2=O)c1ccncc1`, which MIC99 [1] is on record?
Answer: Its MIC99 is 47.3 µM (≈ 25 µg/mL).

Question: What about the IC50 (Vero [2]) of the same compound?
Answer: The IC50 was 119 µM.

Question: What about the selectivity ratio [3] of the same compound?
Answer: The selectivity ratio was 2.5.

Question: For `O=C(NN1C(=O)c2ccc(C(=O)OCCCNc3ccnc4cc(Cl)ccc34)cc2C1=O)c1ccncc1`, which MIC99 [1] is on record?
Answer: The MIC99 was 11.9 µM (≈ 6.31 µg/mL).

Question: And the IC50 (Vero [2])?
Answer: The IC50 was > 194 µM.

Question: And the selectivity ratio [3]?
Answer: The selectivity ratio was > 16.

Question: For `O=C(O)c1ccc2c(c1)C(=O)N(CCCNc1ccnc3cc(Cl)ccc13)C2=O`, which MIC99 [1] is on record?
Answer: The MIC99 was 489 µM (≈ 200 µg/mL).

Question: And the IC50 (Vero [2])?
Answer: Its IC50 is 242 µM.

Question: What about the selectivity ratio [3] of the same compound?
Answer: Its selectivity ratio is 0.5.

Question: With `O=C(NNC(=O)c1ccc2c(c1)C(=O)N(CCCCCCNc1ccnc3cc(Cl)ccc13)C2=O)c1ccncc1` as the compound, how does the MIC99 [1] read?
Answer: Its MIC99 is 21.9 µM (≈ 12.5 µg/mL).

Question: And the IC50 (Vero [2])?
Answer: The IC50 was 128 µM.

Question: What about the selectivity ratio [3] of the same compound?
Answer: The selectivity ratio was 5.8.

Question: Which MIC99 [1] does the source give for `O=C(NN1C(=O)c2ccc(C(=O)OCCNc3ccnc4cc(Cl)ccc34)cc2C1=O)c1ccncc1` here?
Answer: Its MIC99 is > 388 µM.

Question: And the IC50 (Vero [2])?
Answer: The IC50 was > 194 µM.

Question: And the selectivity ratio [3]?
Answer: The selectivity ratio was > 0.5.

Question: With `O=C1C(=O)N(CCCN2CCN(c3ccnc4cc(Cl)ccc34)CC2)c2ccc(F)cc21` as the compound, how does the MIC [4] read?
Answer: Its MIC is < 10.1 µM.

Question: Which results are given for `O=C(NNC(=O)c1ccc2c(c1)C(=O)N(CCNc1ccnc3cc(Cl)ccc13)C2=O)c1ccncc1`?
Answer: MIC99 [1]: 389 µM (≈ 200 µg/mL); IC50 (Vero [2]): > 194 µM; selectivity ratio [3]: > 0.5

Question: Which MIC99 [1] does the source give for `O=C(NN1C(=O)c2ccc(N3CCN(c4ccnc5cc(Cl)ccc45)CC3)cc2C1=O)c1ccncc1` here?
Answer: The MIC99 was 6 µM (≈ 3.08 µg/mL).

Question: And the IC50 (Vero [2])?
Answer: The IC50 was > 195 µM.

Question: What about the selectivity ratio [3] of the same compound?
Answer: The selectivity ratio was > 32.5.

Question: What does the source list for `O=C1c2ccc(N3CCCCC3)cc2C(=O)N1CCCCNc1ccnc2cc(Cl)ccc12`?
Answer: IC50 (Vero [5]): > 216 µM; MIC [6]: 13.5 µM (≈ 6.25 µg/mL)

Question: With `O=C(NCCCCCCCCNc1ccnc2cc(Cl)ccc12)c1ccc2c(c1)C(=O)N(NC(=O)c1ccncc1)C2=O` as the compound, how does the MIC99 [1] read?
Answer: Its MIC99 is 5.1 µM (≈ 3.06 µg/mL).

Question: What about the IC50 (Vero [2]) of the same compound?
Answer: The IC50 was > 167 µM.

Question: What about the selectivity ratio [3] of the same compound?
Answer: Its selectivity ratio is > 32.7.

Question: With `O=C(CN1C(=O)c2ccccc2C1=O)NNC(=O)c1ccncc1` as the compound, how does the MIC99 [1] read?
Answer: The MIC99 was 308 µM (≈ 100 µg/mL).

Question: And the IC50 (Vero [2])?
Answer: The IC50 was > 308 µM.

Question: What about the selectivity ratio [3] of the same compound?
Answer: Its selectivity ratio is > 1.

Question: With `O=C(NCCNc1ccnc2cc(Cl)ccc12)c1ccc2c(c1)C(=O)N(NC(=O)c1ccncc1)C2=O` as the compound, how does the MIC99 [1] read?
Answer: The MIC99 was 6 µM (≈ 3.09 µg/mL).

Question: And the IC50 (Vero [2])?
Answer: The IC50 was 64.1 µM.

Question: What about the selectivity ratio [3] of the same compound?
Answer: The selectivity ratio was 10.6.

Question: With `O=C1c2ccccc2C(=O)N1CCCCCCCCNc1ccnc2cc(Cl)ccc12` as the compound, how does the MIC [7] read?
Answer: Its MIC is 13.5 µM (≈ 5.89 µg/mL).

Question: And the IC50 (Vero [2])?
Answer: Its IC50 is 11.4 µM.

Question: With `O=C(NNC(=O)c1ccc2c(c1)C(=O)N(CCCCNc1ccnc3cc(Cl)ccc13)C2=O)c1ccncc1` as the compound, how does the MIC99 [1] read?
Answer: Its MIC99 is 23 µM (≈ 12.5 µg/mL).

Question: What about the IC50 (Vero [2]) of the same compound?
Answer: Its IC50 is 16.6 µM.

Question: What about the selectivity ratio [3] of the same compound?
Answer: The selectivity ratio was 0.7.

Question: Which MIC99 [1] does the source give for `O=C(NCCCCNc1ccnc2cc(Cl)ccc12)c1ccc2c(c1)C(=O)N(NC(=O)c1ccncc1)C2=O` here?
Answer: The MIC99 was 23 µM (≈ 12.5 µg/mL).

Question: What about the IC50 (Vero [2]) of the same compound?
Answer: The IC50 was 14.7 µM.

Question: And the selectivity ratio [3]?
Answer: Its selectivity ratio is 0.6.

Question: With `O=C(O)c1ccc2c(c1)C(=O)N(CCCCCCCCNc1ccnc3cc(Cl)ccc13)C2=O` as the compound, how does the MIC99 [1] read?
Answer: Its MIC99 is 417 µM (≈ 200 µg/mL).

Question: And the IC50 (Vero [2])?
Answer: The IC50 was > 209 µM.

Question: What about the selectivity ratio [3] of the same compound?
Answer: The selectivity ratio was > 0.5.

Question: With `O=C(NCCCCCCNc1ccnc2cc(Cl)ccc12)c1ccc2c(c1)C(=O)N(NC(=O)c1ccncc1)C2=O` as the compound, how does the MIC99 [1] read?
Answer: The MIC99 was 11 µM (≈ 6.28 µg/mL).

Question: And the IC50 (Vero [2])?
Answer: Its IC50 is 33.3 µM.

Question: What about the selectivity ratio [3] of the same compound?
Answer: Its selectivity ratio is 3.

Question: Which results are given for `O=C(O)c1ccc2c(c1)C(=O)N(CCCCNc1ccnc3cc(Cl)ccc13)C2=O`?
Answer: MIC99 [1]: 236 µM (≈ 100 µg/mL); IC50 (Vero [2]): 40.1 µM; selectivity ratio [3]: 0.16

Question: For `NNC(=O)c1ccncc1`, which MIC99 [1] is on record?
Answer: Its MIC99 is 0.07 µM (≈ 0.0096 µg/mL).

Question: With `O=C(NN1C(=O)c2cccc3cccc(c23)C1=O)c1ccncc1` as the compound, how does the MIC [7] read?
Answer: Its MIC is > 631 µM.

Question: For `O=C(NN1C(=O)c2c(F)c(F)c(F)c(F)c2C1=O)c1ccncc1`, which MIC [8] is on record?
Answer: Its MIC is 3.4 µM (≈ 1.15 µg/mL).

Question: Which MIC99 [1] does the source give for `O=C(NCCCNc1ccnc2cc(Cl)ccc12)c1ccc2c(c1)C(=O)N(NC(=O)c1ccncc1)C2=O` here?
Answer: The MIC99 was 5.8 µM (≈ 3.07 µg/mL).

Question: What about the IC50 (Vero [2]) of the same compound?
Answer: The IC50 was 161 µM.

Question: What about the selectivity ratio [3] of the same compound?
Answer: Its selectivity ratio is 27.

Question: With `O=C(Cn1cc(CN2C(=O)c3ccccc3C2=O)nn1)Nc1ccc(Br)cc1` as the compound, how does the MIC [9] read?
Answer: Its MIC is 28.4 µM (≈ 12.5 µg/mL).

Question: Which results are given for `O=C(O)c1ccc2c(c1)C(=O)N(CCNc1ccnc3cc(Cl)ccc13)C2=O`?
Answer: MIC99 [1]: > 506 µM; IC50 (Vero [2]): > 253 µM; selectivity ratio [3]: > 0.5

Question: With `O=C(NNC(=O)c1ccc(N2C(=O)c3ccccc3C2=O)cc1)c1ccncc1` as the compound, how does the MIC99 [1] read?
Answer: The MIC99 was 129 µM (≈ 50 µg/mL).

Question: And the IC50 (Vero [2])?
Answer: The IC50 was > 259 µM.

Question: What about the selectivity ratio [3] of the same compound?
Answer: The selectivity ratio was > 2.

Question: Which results are given for `O=C(CN1C(=O)c2ccc(F)cc2C1=O)NCCNc1ccnc2cc(Cl)ccc12`?
Answer: IC50 (Vero [5]): > 235 µM; MIC [6]: 14.6 µM (≈ 6.23 µg/mL)

Question: Which MIC99 [1] does the source give for `O=C(NNC(=O)c1ccc2c(c1)C(=O)N(CCCCCCCCNc1ccnc3cc(Cl)ccc13)C2=O)c1ccncc1` here?
Answer: The MIC99 was 5.1 µM (≈ 3.06 µg/mL).

Question: What about the IC50 (Vero [2]) of the same compound?
Answer: Its IC50 is 129 µM.

Question: What about the selectivity ratio [3] of the same compound?
Answer: The selectivity ratio was 25.

Question: With `Cc1ccc(N2C(=O)C(NC(=O)CCNc3ccnc4cc(Cl)ccc34)[C@@H]2/C=C/c2ccccc2)cc1` (some centres not stated) as the compound, how does the MIC [4] read?
Answer: The MIC was 9.8 µM (≈ 5.01 µg/mL).

Question: Which MIC99 [1] does the source give for `O=C(O)c1ccc2c(c1)C(=O)N(CCCCCCNc1ccnc3cc(Cl)ccc13)C2=O` here?
Answer: Its MIC99 is 222 µM (≈ 100 µg/mL).

Question: And the IC50 (Vero [2])?
Answer: Its IC50 is 24.3 µM.

Question: What about the selectivity ratio [3] of the same compound?
Answer: Its selectivity ratio is 0.11.

— ChEMBL document CHEMBL4699521, “Design and synthesis of 4-Aminoquinoline-isoindoline-dione-isoniazid triads as potential anti-mycobacterials” (Bioorg Med Chem Lett, 2020)
